Assay: Dry matter feed intake in sorbitol feeding trials
Format: in vivo, Holstein cows
Conditions: for increase in dry matter feed intake: Pre-Partum Trial #1 (75 g/day wk −3..−1 only) versus Control Trial #1
Method: To determine the dry matter weight (or dry matter basis or dry basis) of a particular sample, the sample is first weighed. The weighed sample is then dried in an oven at a temperature that is adequate to drive off moisture from the sample without degrading the sample components, such as a temperature ranging from about 100° C. to about 110° C. The oven drying is continued until the weight of the dried sample remains constant, despite additional oven drying. During the pre-partum period, for all cows utilized in Example One or Example Two, the pre-partum control feed, as modified to include any sorbitol indicated above for the different trials, was placed in the feeding troughs of the different cows participating in the different trials once daily in the morning. Thereafter, these different pre-partum feeds (the pre-partum control feed, including any incorporated sorbitol dosage of a particular trial during the pre-partum period) of the different trials were lightly stirred, separately and individually, in front of the cows of the different trials three times per day during the pre-partum period to encourage additional feed ingestion by the cows. Leftover rations from the previous day's feeding were collected and weighed from each feeding trough during the pre-partum period, prior to feeding the test cows on a subsequent day. The cows of the different trials received a sufficient amount of the pre-partum to ensure at least about ten weight percent of the pre-partum feeds of the different trials remained in the feeding troughs of each trial each day of the pre-partum period, based on the amount of the different pre-partum feeds of the different trials provided at the beginning of each day. Feed refusals were measured daily during the pre-partum period, and water was supplied ad libitum. During the early post-partum period, for all cows utilized in Example One or Example Two, the first post-partum control feed, as modified to include any sorbitol indicated above for the different trials, was placed in the feeding troughs of the different cows participating in the different trials once daily in the morning. Thereafter, these first post-partum feeds (the first post-partum control feed, including any incorporated sorbitol dosage of a particular trial during the early post-partum period) of the different trials were lightly stirred, separately and individually, in front of the cows of the different trials three times per day during the early post-partum period to encourage additional feed ingestion by the cows. Leftover rations from the previous day's feeding were collected and weighed from each feeding trough during the early post-partum period, prior to feeding the test cows on a subsequent day. The cows of the different trials received a sufficient amount of the first post-partum feed to ensure at least about ten weight percent of the first post-partum feeds of the different trials remained in the feeding troughs of each trial each day of the early post-partum period, based on the amount of the different first post-partum feeds of the different trials provided at the beginning of each day. Feed refusals were measured daily during the early post-partum period, and water was supplied ad libitum. […] Thereafter, the second post-partum control feed were lightly stirred, separately and individually, in front of the cows of the different trials three times per day during the weeks +5 through +8 to encourage additional feed ingestion by the cows. Leftover rations from the previous day's feeding were collected and weighed from each feeding trough during weeks +5 through +8, prior to feeding the test cows on a subsequent day. […]

SMILES: OC[C@@H](O)[C@@H](O)[C@H](O)[C@@H](O)CO [sorbitol]
- Dry Matter Feed Intake (Pre-Partum Trial #1 (75/0/0 g/day in wk −3..−1/+1..+4/+5..+8), multiparious cows, weeks +1 through +8): 44.5 lbs/day
- Dry Matter Feed Intake (Pre-Partum Trial #1 (75/0/0 g/day in wk −3..−1/+1..+4/+5..+8), multiparious cows, weeks −3 through −1): 29.9 lbs/day
- Dry Matter Feed Intake (Pre-Partum Trial #1 (75/0/0 g/day in wk −3..−1/+1..+4/+5..+8), primiparious cows, weeks +1 through +8): 34.2 lbs/day
- Dry Matter Feed Intake (Pre-Partum Trial #1 (75/0/0 g/day in wk −3..−1/+1..+4/+5..+8), primiparious cows, weeks −3 through −1): 17.8 lbs/day
- increase in dry matter feed intake (multiparious cows, weeks +1 through +8): +9.6%
- increase in dry matter feed intake (primiparious cows, weeks +1 through +8): +7.9%
- Dry Matter Intake (Pre-Partum Trial #2 (75/0/100 g/day in wk −3..−1/+1..+4/+5..+8), multiparious cows, week +1): 32.7 lbs/day
- Change in Dry Matter Feed Intake (Pre-Partum Trial #2 (75/0/100 g/day in wk −3..−1/+1..+4/+5..+8), multiparious cows, week +1 versus −1): 1.97 lbs/day
- Dry Matter Intake (Pre-Partum Trial #2 (75/0/100 g/day in wk −3..−1/+1..+4/+5..+8), multiparious cows, week +2): 42.5 lbs/day
- Dry Matter Intake (Pre-Partum Trial #2 (75/0/100 g/day in wk −3..−1/+1..+4/+5..+8), multiparious cows, week +3): 46.2 lbs/day
- Dry Matter Intake (Pre-Partum Trial #2 (75/0/100 g/day in wk −3..−1/+1..+4/+5..+8), multiparious cows, week +4): 50.1 lbs/day
- Dry Matter Intake (Pre-Partum Trial #2 (75/0/100 g/day in wk −3..−1/+1..+4/+5..+8), multiparious cows, week +5): 52.4 lbs/day
- Dry Matter Intake (Pre-Partum Trial #2 (75/0/100 g/day in wk −3..−1/+1..+4/+5..+8), multiparious cows, week +6): 53.9 lbs/day
- Dry Matter Intake (Pre-Partum Trial #2 (75/0/100 g/day in wk −3..−1/+1..+4/+5..+8), multiparious cows, week +7): 56.1 lbs/day
- Dry Matter Intake (Pre-Partum Trial #2 (75/0/100 g/day in wk −3..−1/+1..+4/+5..+8), multiparious cows, week +8): 53.8 lbs/day
- Dry Matter Intake (Pre-Partum Trial #2 (75/0/100 g/day in wk −3..−1/+1..+4/+5..+8), multiparious cows, week −1): 30.7 lbs/day
- Dry Matter Intake (Pre-Partum Trial #2 (75/0/100 g/day in wk −3..−1/+1..+4/+5..+8), multiparious cows, week −2): 33.5 lbs/day
- Change in Dry Matter Feed Intake (Pre-Partum Trial #2 (75/0/100 g/day in wk −3..−1/+1..+4/+5..+8), multiparious cows, week −2 versus −1): −2.88 lbs/day
- Dry Matter Intake (Pre-Partum Trial #2 (75/0/100 g/day in wk −3..−1/+1..+4/+5..+8), multiparious cows, week −3): 30.9 lbs/day
- Dry Matter Intake (Pre-Partum Trial #2 (75/0/100 g/day in wk −3..−1/+1..+4/+5..+8), multiparious cows, weeks +1 through +4): 42.9 lbs/day
- Dry Matter Intake (Pre-Partum Trial #2 (75/0/100 g/day in wk −3..−1/+1..+4/+5..+8), multiparious cows, weeks +1 through +8): 48.4 lbs/day
- Dry Matter Intake (Pre-Partum Trial #2 (75/0/100 g/day in wk −3..−1/+1..+4/+5..+8), multiparious cows, weeks +5 through +8): 54.2 lbs/day
- Dry Matter Intake (Pre-Partum Trial #2 (75/0/100 g/day in wk −3..−1/+1..+4/+5..+8), multiparious cows, weeks −3 through −1): 31.8 lbs/day
- decrease in dry matter feed intake (Pre-Partum Trial #2 (75 g/day pre-partum) versus Control Trial #2, multiparious cows, pre-partum period (weeks −3 through −1)): 7.0%
- Dry Matter Intake (Pre/Post Trial #1 (150/125/100 g/day in wk −3..−1/+1..+4/+5..+8), multiparious cows, week +1): 36.6 lbs/day
- Dry Matter Feed Intake (Pre/Post Trial #1 (150/125/100 g/day in wk −3..−1/+1..+4/+5..+8), multiparious cows, week +1, two-trial comparison with Control Trial #2 (Table 22)): 36.7 lbs/day
- Change in Dry Matter Feed Intake (Pre/Post Trial #1 (150/125/100 g/day in wk −3..−1/+1..+4/+5..+8), multiparious cows, week +1 versus −1): 3.37 lbs/day
- Change in Dry Matter Feed Intake (Pre/Post Trial #1 (150/125/100 g/day in wk −3..−1/+1..+4/+5..+8), multiparious cows, week +1 versus −1, two-trial comparison with Control Trial #2 (Table 22)): 3.35 lbs/day
- Dry Matter Intake (Pre/Post Trial #1 (150/125/100 g/day in wk −3..−1/+1..+4/+5..+8), multiparious cows, week +2): 45.3 lbs/day
- Dry Matter Feed Intake (Pre/Post Trial #1 (150/125/100 g/day in wk −3..−1/+1..+4/+5..+8), multiparious cows, week +2, two-trial comparison with Control Trial #2 (Table 22)): 45.6 lbs/day
- Dry Matter Intake (Pre/Post Trial #1 (150/125/100 g/day in wk −3..−1/+1..+4/+5..+8), multiparious cows, week +3): 48.5 lbs/day
- Dry Matter Feed Intake (Pre/Post Trial #1 (150/125/100 g/day in wk −3..−1/+1..+4/+5..+8), multiparious cows, week +3, two-trial comparison with Control Trial #2 (Table 22)): 48.8 lbs/day
- Dry Matter Intake (Pre/Post Trial #1 (150/125/100 g/day in wk −3..−1/+1..+4/+5..+8), multiparious cows, week +4): 51.2 lbs/day
- Dry Matter Feed Intake (Pre/Post Trial #1 (150/125/100 g/day in wk −3..−1/+1..+4/+5..+8), multiparious cows, week +4, two-trial comparison with Control Trial #2 (Table 22)): 51.5 lbs/day
- Dry Matter Intake (Pre/Post Trial #1 (150/125/100 g/day in wk −3..−1/+1..+4/+5..+8), multiparious cows, week +5): 53.9 lbs/day
- Dry Matter Feed Intake (Pre/Post Trial #1 (150/125/100 g/day in wk −3..−1/+1..+4/+5..+8), multiparious cows, week +5, two-trial comparison with Control Trial #2 (Table 22)): 54.2 lbs/day
- Dry Matter Intake (Pre/Post Trial #1 (150/125/100 g/day in wk −3..−1/+1..+4/+5..+8), multiparious cows, week +6): 53.7 lbs/day
- Dry Matter Feed Intake (Pre/Post Trial #1 (150/125/100 g/day in wk −3..−1/+1..+4/+5..+8), multiparious cows, week +6, two-trial comparison with Control Trial #2 (Table 22)): 54.1 lbs/day
- Dry Matter Intake (Pre/Post Trial #1 (150/125/100 g/day in wk −3..−1/+1..+4/+5..+8), multiparious cows, week +7): 54.5 lbs/day

Source: patent publication US9179694B2, “Method and composition for enhancing milk production and milk component concentrations” (PURINA ANIMAL NUTRITION LLC, priority 2003, dated 2015)
